In patent publication US8198311B2, “Modulators of glucocorticoid receptor, AP-1, and/or NF-κB activity and use thereof” (Bristol-Myers Squibb Company, priority 2006, dated 2012):
Like-named read-outs stand apart in the source and are kept apart here.

Columns and labels:
[1] = test system: AP-1 induced transcriptional activity; assay: Cellular Transrepressional Assay (AP-1 luciferase reporter in A549 cells, PMA-activated); type: cell-based; conditions: pAP-1-Luc, 10 ng/ml PMA, read-out: AP-1 (EC50, nM) (Cellular Transrepression Assay)
Protocol: To measure the ability of test molecules to inhibit AP-1 induced transcriptional activity an A549 cell was utilized which was stably transfected with a plasmid containing 7×AP-1 DNA binding sites (pAP-1-Luc plasmid, Stratagene Co. La Jolla, Calif.) followed by the gene for luciferase. Cells were activated with 10 ng/ml of phorbol myristic acid (PMA) plus or minus test molecules for 7 hours. After 7 hours a luciferase reagent was added to measure luciferase enzymatic activity in the cell. After a 10 minute incubation of luciferase reagent with cells, luminescence was measured in a TopCount luminescence counter. Repression of AP-1 activity was calculated as the percentage decrease in the signal induced by PMA alone. Test molecules were analyzed in the concentration range from 0.1 nM to 40 μM. EC50s were determined by using standard curve fitting methods such as Excel fit (Microsoft Co.).

[2] = target: T1, human glucocorticoid receptor (Homo sapiens, UniProt P04150); assay: Glucocorticoid Receptor Binding Assay (I), fluorescence polarization competitor kit (Fluormone GS Red); conditions: purified human recombinant full-length GR
T1 construct: purified human recombinant full-length glucocorticoid receptor (2 nM); purchased Invitrogen Part # 2893
T1 sequence (P04150 1-777): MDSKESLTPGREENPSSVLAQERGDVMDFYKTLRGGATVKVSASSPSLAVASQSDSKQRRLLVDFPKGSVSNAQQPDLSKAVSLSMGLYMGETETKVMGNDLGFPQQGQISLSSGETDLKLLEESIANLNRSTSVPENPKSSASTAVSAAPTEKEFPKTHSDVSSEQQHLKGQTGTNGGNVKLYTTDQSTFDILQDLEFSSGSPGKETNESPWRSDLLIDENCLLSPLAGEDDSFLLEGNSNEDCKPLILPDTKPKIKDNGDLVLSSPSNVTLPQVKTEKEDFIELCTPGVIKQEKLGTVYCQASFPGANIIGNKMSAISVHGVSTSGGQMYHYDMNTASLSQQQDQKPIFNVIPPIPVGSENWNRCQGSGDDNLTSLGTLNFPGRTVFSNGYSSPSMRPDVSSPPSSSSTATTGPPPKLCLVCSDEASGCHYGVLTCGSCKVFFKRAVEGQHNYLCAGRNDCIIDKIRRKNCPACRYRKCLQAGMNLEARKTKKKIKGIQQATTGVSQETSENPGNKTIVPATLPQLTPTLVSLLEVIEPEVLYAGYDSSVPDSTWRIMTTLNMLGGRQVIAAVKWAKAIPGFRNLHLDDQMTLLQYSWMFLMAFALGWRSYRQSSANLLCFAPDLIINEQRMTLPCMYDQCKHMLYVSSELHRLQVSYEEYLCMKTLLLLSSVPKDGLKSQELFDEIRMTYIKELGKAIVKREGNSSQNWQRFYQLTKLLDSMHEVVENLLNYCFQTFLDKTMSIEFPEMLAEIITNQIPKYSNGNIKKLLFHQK
Protocol: In order to assess the affinity of test compounds for the human glucocorticoid receptor, a commercially available kit was used (Glucocorticoid Receptor Competitor Assay Kit, Invitrogen Part # 2893). Briefly, purified human recombinant full-length glucocorticoid receptor (2 nM) was mixed with fluorescently labeled glucocorticoid (1 nM Fluormone GS Red) in the presence or absence of test compound. After two hour incubation at room temperature in the dark, the fluorescence polarization (FP) of the samples was measured. […] Test compounds were analyzed in the concentration range from 8.5E-05 μM to 5 μM.

EC50 ([1]; Homo sapiens, A549, 7 h)	Ki [2]	EC50 ([1]; 7 hours)	Structure (SMILES)
12 nM	0.94 nM	–	CC(CNS(C)(=O)=O)C(c1ccccc1)c1ccc2c(cnn2-c2ccc(F)cc2)c1 (centres unmarked) [Example 92, N-(3-(1-(4-fluorophenyl)-1H-indazol-5-yl)-2-methyl-3-phenylpropyl)methanesulfonamide]
2800 nM	29 nM	–	CC(C)NC(=O)NCC(C)(C)C(C)(C)c1ccc2c(cnn2-c2ccc(F)cc2)c1 [Example 118, 1-(3-(1-(4-fluorophenyl)-1H-indazol-5-yl)-2,2,3-trimethylbutyl)-3-isopropylurea]
132 nM	2.1 nM	–	CCC(c1ccc2c(cnn2-c2ccc(F)cc2)c1)C(C)(C)CNC(=O)NC(C)(C)C (centres unmarked) [Example 101, 1-tert-butyl-3-(3-(1-(4-fluorophenyl)-1H-indazol-5-yl)-2,2-dimethylpentyl)urea]
> 10000 nM	20 nM	–	CCNC(=O)NCC(C)(C)C(C)(C)c1ccc2c(cnn2-c2ccc(F)cc2)c1 [Example 117, 1-ethyl-3-(3-(1-(4-fluorophenyl)-1H-indazol-5-yl)-2,2,3-trimethylbutyl)urea]
1860 nM	–	–	CC(C)(CNS(=O)(=O)CS(C)(=O)=O)[C@@H](c1ccccc1)c1ccc2c(cnn2-c2ccc(F)cc2)c1 [Example 14, (S)-N-(3-(1-(4-fluorophenyl)-1H-indazol-5-yl)-2,2-dimethyl-3-phenylpropyl)-1-(methylsulfonyl)methanesulfonamide]
164 nM	5.6 nM	–	CC(C)CC(c1ccc2c(cnn2-c2ccc(F)cc2)c1)C(C)(C)CNC(=O)C(=O)C(C)(C)C (centres unmarked) [Example 67, N-(3-(1-(4-fluorophenyl)-1H-indazol-5-yl)-2,2,5-trimethylhexyl)-3,3-dimethyl-2-oxobutanamide]
349 nM	5.9 nM	–	CC(C)C(c1ccc2c(cnn2-c2ccc(F)cc2)c1)C(C)(C)CNC(=O)NC(C)(C)C (centres unmarked) [Example 103, 1-tert-butyl-3-(3-(1-(4-fluorophenyl)-1H-indazol-5-yl)-2,2,4-trimethylpentyl)urea]
> 5000 nM	8.7 nM	–	Cc1cc(C)c(S(=O)(=O)NCC(C)(C)C(CC(C)C)c2ccc3c(cnn3-c3ccc(F)cc3)c2)c(C)c1 (centres unmarked) [Example 81, N-(3-(1-(4-fluorophenyl)-1H-indazol-5-yl)-2,2,5-trimethylhexyl)-2,4,6-trimethylbenzenesulfonamide]
813 nM	2.2 nM	–	CC(C)CC(c1ccc2c(cnn2-c2ccc(F)cc2)c1)C(C)(C)CNC(=O)N[C@@H]1c2ccccc2C[C@@H]1O (stereo partly drawn) [Example 78, 1-(3-(1-(4-fluorophenyl)-1H-indazol-5-yl)-2,2,5-trimethylhexyl)-3-((1R,2S)-2-hydroxy-2,3-dihydro-1H-inden-1-yl)urea]
5000 nM	18.3 nM	–	O=S(=O)(CC(F)(F)F)NCC(c1ccccc1)C(c1ccccc1)c1ccc2c(cnn2-c2ccc(F)cc2)c1 (centres unmarked) [Example 100, 2,2,2-Trifluoro-N-(3-(1-(4-fluorophenyl)-1H-indazol-5-yl)-2,3-diphenylpropyl)ethanesulfonamide]
159 nM	2.3 nM	–	CC(C)CC(c1ccc2c(cnn2-c2ccc(F)cc2)c1)C(C)(C)CNC(=O)NCC(C)(C)C (centres unmarked) [Example 35, 1-(3-(1-(4-fluorophenyl)-1H-indazol-5-yl)-2,2,5-trimethylhexyl)-3-neopentylurea]
–	3.5 nM	158 nM	CC(CNC(=O)NC(C)(C)C)C(c1ccccc1)c1ccc2c(cnn2-c2ccc(F)cc2)c1 (single isomer, unassigned) [Example 97C, 1-tert-butyl-3-(3-(1-(4-fluorophenyl)-1H-indazol-5-yl)-2-methyl-3-phenylpropyl)urea]
> 10000 nM	4.3 nM	–	CC(C)CC(c1ccc2c(cnn2-c2ccc(F)cc2)c1)C(C)(C)CNS(=O)(=O)NC(C)(C)C (centres unmarked) [Example 63]
511 nM	6.5 nM	–	CC(C)CC(c1ccc2c(cnn2-c2ccc(F)cc2)c1)C(C)(C)CNC(=O)N[C@@H]1CCc2ccccc21 (stereo partly drawn) [Example 71B, 1-((R)-2,3-dihydro-1H-inden-1-yl)-3-(3-(1-(4-fluorophenyl)-1H-indazol-5-yl)-2,2,5-trimethylhexyl)urea]
25 nM	1.1 nM	–	CC(C)(CNS(=O)(=O)CC(F)(F)F)[C@@H](c1ccccc1)c1ccc2c(cnn2-c2ccc(F)cc2)c1 [Example 18, (S)-2,2,2-trifluoro-N-(3-(1-(4-fluorophenyl)-1H-indazol-5-yl)-2,2-dimethyl-3-phenylpropyl)ethanesulfonamide]
2780 nM	–	–	CN(C)S(=O)(=O)NCC(C)(C)[C@@H](c1ccccc1)c1ccc2c(cnn2-c2ccc(F)cc2)c1 [Example 15, (S)-N-dimethyl-N′-(3-(1-(4-fluorophenyl)-1H-indazol-5-yl)-2,2-dimethyl-3-phenylpropyl)propane-1-sulfamide]
54 nM	2.7 nM	–	CC(C)CC(c1ccc2c(cnn2-c2ccc(F)cc2)c1)C(C)(C)CNC(=O)N[C@H](C)C(C)(C)C (stereo partly drawn) [Example 44, 1-((R)-3,3-dimethylbutan-2-yl)-3-(3-(1-(4-fluorophenyl)-1H-indazol-5-yl)-2,2,5-trimethylhexyl)urea]
–	55 nM	–	C#CC(C)(C)NC(=O)NCC(C)(C)C(CC(C)C)c1ccc2c(cnn2-c2ccc(F)cc2)c1 (centres unmarked) [Example 72, 1-(3-(1-(4-fluorophenyl)-1H-indazol-5-yl)-2,2,5-trimethylhexyl)-3-(2-methylbut-3-yn-2-yl)urea]
1280 nM	–	–	CC(C)C(=O)NCC(C)(C)[C@@H](c1ccccc1)c1ccc2c(cnn2-c2ccc(F)cc2)c1 [Example 4, (S)-N-(3-(1-(4-fluorophenyl)-1H-indazol-5-yl)-2,2-dimethyl-3-phenylpropyl)isobutyramide]
–	22 nM	–	CC(C)(CNC(=O)CC(F)(F)F)C1(c2ccc3c(cnn3-c3ccc(F)cc3)c2)CCOCC1 [Example 113, 3,3,3-Trifluoro-N-(2-(4-(1-(4-fluorophenyl)-1H-indazol-5-yl)tetrahydro-2H-pyran-4-yl)-2-methylpropyl)propanamide]
508 nM	–	–	CC(C)CCC(=O)NCC(C)(C)[C@@H](c1ccccc1)c1ccc2c(cnn2-c2ccc(F)cc2)c1 [Example 2, (S)-N-(3-(1-(4-fluorophenyl)-1H-indazol-5-yl)-2,2-dimethyl-3-phenylpropyl)-4-methylpentanamide]
2270 nM	–	–	CC(C)(CNC(=O)C(F)(F)F)[C@@H](c1ccccc1)c1ccc2c(cnn2-c2ccc(F)cc2)c1 [(S)-16, (S)-2,2,2-trifluoro-N-(3-(1-(4-fluorophenyl)-1H-indazol-5-yl)-2,2-dimethyl-3-phenylpropyl)acetamide]
573 nM	–	–	CC(C)(CNC(=O)c1cccs1)[C@H](c1ccccc1)c1ccc2c(cnn2-c2ccc(F)cc2)c1 [Example 20, (R)-N-(3-(1-(4-fluorophenyl)-1H-indazol-5-yl)-2,2-dimethyl-3-phenylpropyl)thiophene-2-carboxamide]
1060 nM	–	–	CC(C)(C)C(=O)NCC(C)(C)[C@@H](c1ccccc1)c1ccc2c(cnn2-c2ccc(F)cc2)c1 [Example 5, (S)-N-(3-(1-(4-fluorophenyl)-1H-indazol-5-yl)-2,2-dimethyl-3-phenylpropyl)pivalamide]
211 nM	–	–	CC(C)(CNS(=O)(=O)C1CC1)[C@@H](c1ccccc1)c1ccc2c(cnn2-c2ccc(F)cc2)c1 [Example 12, (S)-N-(3-(1-(4-fluorophenyl)-1H-indazol-5-yl)-2,2-dimethyl-3-phenylpropyl)cyclopropanesulfonamide]
2520 nM	–	–	CC(C)(CNC(=O)Cc1ccccc1)[C@@H](c1ccccc1)c1ccc2c(cnn2-c2ccc(F)cc2)c1 [Example 3, (S)-N-(3-(1-(4-fluorophenyl)-1H-indazol-5-yl)-2,2-dimethyl-3-phenylpropyl)-2-phenylacetamide]
